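Assay format: 96-well plates, 48-hour exposure. GI50 is the concentration that inhibits growth by half. The concentration for full growth arrest is given as TGI.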
What was measured:
Experiment in all cases: growth of human tumour cells (NCI), 48 h
OVCAR-3 ovarian = test system: OVCAR-3 ovarian
HCC-2998 colon = test system: HCC-2998 colon
M14 melanoma = test system: M14 melanoma
UACC-62 melanoma = test system: UACC-62 melanoma
SF-295 CNS = test system: SF-295 CNS
SN12C renal = test system: SN12C renal
HCT-15 colon = test system: HCT-15 colon
SK-MEL-5 melanoma = test system: SK-MEL-5 melanoma
MDA-MB-435 = test system: MDA-MB-435
NCI-H23 lung = test system: NCI-H23 lung
HOP-92 NSCLC = test system: HOP-92 NSCLC
SNB-19 CNS = test system: SNB-19 CNS
UACC-257 melanoma = test system: UACC-257 melanoma
NCI-H460 lung = test system: NCI-H460 lung
CAKI-1 renal = test system: CAKI-1 renal
OVCAR-4 ovarian = test system: OVCAR-4 ovarian
HT29 colon = test system: HT29 colon
786-0 renal = test system: 786-0 renal
NCI/ADR-RES ovarian = test system: NCI/ADR-RES ovarian
OVCAR-5 ovarian = test system: OVCAR-5 ovarian
SW-620 colon = test system: SW-620 colon
MALME-3M melanoma = test system: MALME-3M melanoma
A498 renal = test system: A498 renal
K-562 leukemia = test system: K-562 leukemia
CCRF-CEM leukemia = test system: CCRF-CEM leukemia
ACHN renal = test system: ACHN renal
OVCAR-8 ovarian = test system: OVCAR-8 ovarian
HL-60(TB) leukemia = test system: HL-60(TB) leukemia
DU-145 prostate = test system: DU-145 prostate
COLO 205 colon = test system: COLO 205 colon
UO-31 renal = test system: UO-31 renal
SK-MEL-2 melanoma = test system: SK-MEL-2 melanoma
SF-539 CNS = test system: SF-539 CNS
A549 NSCLC = test system: A549 NSCLC
HS 578T breast = test system: HS 578T breast
NCI-H226 lung = test system: NCI-H226 lung
MDA-MB-231 breast = test system: MDA-MB-231 breast
MOLT-4 leukemia = test system: MOLT-4 leukemia
SR leukemia = test system: SR leukemia
MCF7 breast = test system: MCF7 breast
SK-MEL-28 melanoma = test system: SK-MEL-28 melanoma
TK-10 renal = test system: TK-10 renal
PC-3 prostate = test system: PC-3 prostate
RXF 393 renal = test system: RXF 393 renal
U251 CNS = test system: U251 CNS
T-47D breast = test system: T-47D breast
SNB-75 CNS = test system: SNB-75 CNS
LOX IMVI melanoma = test system: LOX IMVI melanoma
HCT-116 colon = test system: HCT-116 colon
NCI-H522 lung = test system: NCI-H522 lung
HOP-62 NSCLC = test system: HOP-62 NSCLC
IGROV1 ovarian = test system: IGROV1 ovarian
SK-OV-3 ovarian = test system: SK-OV-3 ovarian
BT-549 breast = test system: BT-549 breast
RPMI-8226 leukemia = test system: RPMI-8226 leukemia
KM12 colon = test system: KM12 colon
SF-268 CNS = test system: SF-268 CNS
EKVX NSCLC = test system: EKVX NSCLC

## Oc1cc(Cl)ccc1Cc1ccc(Cl)cc1O
OVCAR-3 ovarian
  GI50: 3.71 µM
  TGI: 13.9 µM
HCC-2998 colon
  GI50: 14.6 µM
  TGI: 27.7 µM
M14 melanoma
  GI50: 13.5 µM
  TGI: 26.3 µM
UACC-62 melanoma
  GI50: 4.9 µM
  TGI: 16.3 µM
SF-295 CNS
  GI50: 6.34 µM
  TGI: 24.6 µM
SN12C renal
  GI50: 7.92 µM
  TGI: 20.6 µM
HCT-15 colon
  GI50: 8.09 µM
  TGI: 20.3 µM
SK-MEL-5 melanoma
  GI50: 4.48 µM
  TGI: 15.8 µM
MDA-MB-435
  GI50: 5.37 µM
  TGI: 24.5 µM
NCI-H23 lung
  GI50: 3.21 µM
  TGI: 12.6 µM
HOP-92 NSCLC
  GI50: 2.67 µM
  TGI: 8.11 µM
SNB-19 CNS
  GI50: 14.3 µM
  TGI: 45.1 µM
UACC-257 melanoma
  GI50: 14.7 µM
  TGI: 36.9 µM
NCI-H460 lung
  GI50: 7 µM
  TGI: 19.4 µM
CAKI-1 renal
  GI50: 18.2 µM
  TGI: 43 µM
OVCAR-4 ovarian
  GI50: 6.6 µM
  TGI: 34.8 µM
HT29 colon
  GI50: 17.5 µM
  TGI: 31.3 µM
786-0 renal
  GI50: 18.4 µM
  TGI: 38 µM
NCI/ADR-RES ovarian
  GI50: 8.63 µM
  TGI: 25.4 µM
OVCAR-5 ovarian
  GI50: 15.1 µM
  TGI: 31.8 µM
SW-620 colon
  GI50: 9.73 µM
  TGI: 21.4 µM
MALME-3M melanoma
  GI50: 4.32 µM
  TGI: 19.2 µM
A498 renal
  GI50: 17.4 µM
  TGI: 31.3 µM
K-562 leukemia
  GI50: 5.69 µM
  TGI: > 100 µM
CCRF-CEM leukemia
  GI50: 15.8 µM
  TGI: > 100 µM
ACHN renal
  GI50: 10 µM
  TGI: 31.2 µM
OVCAR-8 ovarian
  GI50: 15.1 µM
  TGI: 48.8 µM
HL-60(TB) leukemia
  GI50: 9.67 µM
  TGI: > 100 µM
DU-145 prostate
  GI50: 10.4 µM
  TGI: 23.2 µM
COLO 205 colon
  GI50: 16.9 µM
  TGI: 30.6 µM
UO-31 renal
  GI50: 4.89 µM
  TGI: 20.1 µM
SK-MEL-2 melanoma
  GI50: 14.8 µM
  TGI: 38.8 µM
SF-539 CNS
  GI50: 11.4 µM
  TGI: 25.4 µM
A549 NSCLC
  GI50: 14.7 µM
  TGI: 41.1 µM
HS 578T breast
  GI50: 7.2 µM
  TGI: 32.8 µM
NCI-H226 lung
  GI50: 24.7 µM
  TGI: 57.8 µM
MDA-MB-231 breast
  GI50: 11.6 µM
  TGI: 36.3 µM
MOLT-4 leukemia
  GI50: 9.24 µM
  TGI: > 100 µM
SR leukemia
  GI50: 10.5 µM
  TGI: > 100 µM
MCF7 breast
  GI50: 13.2 µM
  TGI: 27.9 µM
SK-MEL-28 melanoma
  GI50: 8.26 µM
  TGI: 20.7 µM
TK-10 renal
  GI50: 17 µM
  TGI: 34.8 µM
PC-3 prostate
  GI50: 6.23 µM
  TGI: 83 µM
RXF 393 renal
  GI50: 12.8 µM
  TGI: 28.4 µM
U251 CNS
  GI50: 6.7 µM
  TGI: 21.7 µM
T-47D breast
  GI50: 4.91 µM
  TGI: 29.3 µM
SNB-75 CNS
  GI50: 13.5 µM
  TGI: 34.4 µM
LOX IMVI melanoma
  GI50: 5.84 µM
  TGI: 18.2 µM
HCT-116 colon
  GI50: 4.95 µM
  TGI: 17.1 µM
NCI-H522 lung
  GI50: 3.86 µM
  TGI: 15 µM
HOP-62 NSCLC
  GI50: 11.7 µM
  TGI: 31.7 µM
IGROV1 ovarian
  GI50: 12.5 µM
  TGI: 31.2 µM
SK-OV-3 ovarian
  GI50: 20.6 µM
  TGI: 43.3 µM
BT-549 breast
  GI50: 4.22 µM
  TGI: 19.1 µM
RPMI-8226 leukemia
  GI50: 6.01 µM
  TGI: > 100 µM
KM12 colon
  GI50: 14.8 µM
  TGI: 28.1 µM
SF-268 CNS
  GI50: 9.44 µM
  TGI: 27.7 µM
EKVX NSCLC
  GI50: 5.56 µM
  TGI: 36 µM
